US20040005997A1, “Methods for identifying compounds for regulating muscle mass of function using amylin receptors” (The Procter & Gamble Company, priority 2002, published 2004)

Key:
[1] = system: mouse glucocorticoid-induced atrophy model; assay: mouse glucocorticoid-induced atrophy model; type: in vivo
Protocol: Legend: A—water only with no dexamethasone included in drinking water (non-atrophied control); B—water+dexamethasone (atrophied control); C—amylin (0.3 mg/kg/d)+theophylline+dexamethasone; D—amylin (1.0 mg/kg/d)+theophylline+dexamethasone; *—p≦0.05 compared to water; #—p≦0.05 compared to water+dexamethasone. Following the addition of the glucocorticoid, dexamethasone, to the drinking water (1.2 mg/kg/d), male mice were injected subcutaneously in the midscapular region twice daily with amylin, at the doses indicated above or vehicle control (physiological saline) for nine days. Amylin was co-administered with twice daily intra-peritoneal dosing of the phosphodiesterase inhibitor theophylline (30 mg/kg). Nine days following the initiation of dosing amylin, the medial gastrocnemius and tibialis anterior muscles were removed and weighed to determine the degree of atrophy.
The glucocorticoid-induced atrophy model involves the administration of a glucocorticoid to the test animal, e.g., 1.2 mg/kg/day of dexamethasone in the drinking water. Typically, in untreated animals, skeletal muscle mass is reduced 30-50% following ten days of dexamethasone administration. Concomitantly with, or following glucocorticoid administration, test compounds are administered e.g., by injection or by continuous infusion to determine their effect on glucocorticoid-induced skeletal muscle atrophy. At various times following glucocorticoid administration, the extent of atrophy in the affected muscles is analyzed as described above for the denervation model.

[2] = system: leg casting disuse atrophy model; assay: leg casting disuse atrophy model; type: in vivo, mouse
Protocol: Legend: A—physiological saline (control); B—amylin (0.1 mg/kg)+theophylline; C—amylin (0.3 mg/kg)+theophylline; D—amylin (1.0 mg/kg)+theophylline; *—p≦0.05 compared to saline. Following casting of the right hind leg, male mice were injected subcutaneously in the midscapular region twice daily, with amylin or vehicle control (physiological saline) for ten days at the daily delivered dose indicated. Amylin was co-administered with twice daily intra-peritoneal dosing of the phosphodiesterase inhibitor theophylline (30 mg/kg). On day ten, the medial gastrocnemius and tibialis anterior muscles were removed and weighed to determine the degree of atrophy.
The leg casting disuse atrophy model involves casting one hind leg of an animal from the knee down through the foot. Typically, muscle mass is reduced 20-40% after ten days of casting. Following casting, test compounds are administered by injection or by continuous infusion via implantation of an osmotic minipump (e.g., Alzet, Palo Alto, Calif.) to determine their effect on leg casting induced skeletal muscle atrophy. At various times following leg casting, the extent of atrophy in the affected muscles is analyzed as described above for the denervation model.

[3] = system: mouse sciatic nerve denervation atrophy model; assay: mouse sciatic nerve denervation atrophy model; type: in vivo
Protocol: Legend: A—non-denervated medial gastrocnemius muscle from mice treated with physiological saline (non-atrophied control); B—denervated medial gastrocnemius muscle from mice treated with physiological saline (atrophied control); C—amylin (0.03 mg/kg)+theophylline; D—amylin (0.1 mg/kg)+theophylline; E—amylin (0.3 mg/kg)+theophylline. * —p≦0.05 compared to saline. Following denervation of the right sciatic nerve, male mice were injected subcutaneously in the midscapular region twice daily with amylin, at the doses indicated above or vehicle control (physiological saline) for nine days. […] On day nine, the medial gastrocnemius muscle was removed and weighed to determine the degree of atrophy.
The sciatic nerve denervation atrophy model involves anesthetizing the animal followed by the surgical removal of a short segment of either the right or left sciatic nerve, e.g., in mice the sciatic nerve is isolated approximately at the midpoint along the femur and a 3-5 mm segment is removed. This denervates the lower hind limb musculature resulting in atrophy of these muscles. Typically, innervation to the biceps femoris is left intact to provide satisfactory motion of the knee for virtually normal ambulation. […] The extent of atrophy in the affected muscles is analyzed, for example, by measuring muscle mass, muscle cross-sectional area, myofiber cross-sectional area or contractile protein content.

[4] = system: human subject in a comatose state; assay: prophylactic treatment of skeletal muscle atrophy in comatose state (Example 13); type: in vivo; conditions: human 60 kg, 5 ml of 12 mg/ml amylin stock in 500 ml saline, slow i.v. infusion once each day
Protocol: A human subject weighing 60 kg is admitted to the hospital in a comatose state. The subject is treated by this method to prevent atrophy of the skeletal muscle of the entire body due to disuse in the comatose state. Specifically, once each day while in the coma, the subject is administered, via slow intravenous infusion, approximately 500 ml of an aqueous solution that is prepared by addition of 5 ml of the following stock solution to 500 ml of sterile saline: […]

Compound | effect on skeletal muscle atrophy, theophylline administered alone ([1]; glucocorticoid-induced model, theophylline alone) | effect on skeletal muscle atrophy, theophylline administered alone ([2]; casting disuse model, theophylline alone) | effect on skeletal muscle atrophy, theophylline administered alone ([3]; denervation model, theophylline alone) | glucocorticoid-induced atrophy of the tibialis anterior muscle (muscle weight) ([1]; male mice, dexamethasone 1.2 mg/kg/d in drinking water, amylin 0.3, 1.0 mg/kg/d s.c. twice daily + theophylline 30 mg/kg i.p., nine days, FIG. 2A) | glucocorticoid-induced atrophy of the medial gastrocnemius muscle (muscle weight) ([1]; male mice, dexamethasone 1.2 mg/kg/d in drinking water, amylin 0.3, 1.0 mg/kg/d s.c. twice daily + theophylline 30 mg/kg i.p., nine days, FIG. 2B) | disuse-induced (casting) atrophy of the tibialis anterior muscle (muscle weight) ([2]; male mice, casted right hind leg, amylin 0.1, 0.3, 1.0 mg/kg s.c. twice daily + theophylline 30 mg/kg i.p., ten days, FIG. 3A) | disuse-induced (casting) atrophy of the medial gastrocnemius muscle (muscle weight) ([2]; male mice, casted right hind leg, amylin 0.1, 0.3, 1.0 mg/kg s.c. twice daily + theophylline 30 mg/kg i.p., ten days, FIG. 3B) | hypertrophy of the tibialis anterior muscle of the non-casted leg ([2]; male mice, non-casted (normal) leg, amylin 0.1, 0.3, 1.0 mg/kg s.c. twice daily + theophylline 30 mg/kg i.p., ten days, FIG. 3A) | hypertrophy of the medial gastrocnemius muscle of the non-casted leg ([2]; male mice, non-casted (normal) leg, amylin 0.1, 0.3, 1.0 mg/kg s.c. twice daily + theophylline 30 mg/kg i.p., ten days, FIG. 3B) | denervation-induced atrophy of the medial gastrocnemius muscle (muscle weight) ([3]; male mice, amylin 0.03, 0.1, 0.3 mg/kg s.c. twice daily + theophylline 30 mg/kg i.p. twice daily, nine days, FIG. 1) | skeletal muscle mass and function [4]
Cn1c(=O)c2[nH]cnc2n(C)c1=O [Theophylline, theophylline] | no effect | no effect | no effect |  |  |  |  |  |  |  | 
amylin (KCNTATCATQRLANFLVHSSNNFGAILSSTNVGSNTY; Islet amyloid polypeptide; UniProt P10997 34-70, looked up) [a 37 amino acid peptide; the ligand/agonist of the amylin receptors] |  |  |  | inhibits glucocorticoid-induced muscle atrophy | inhibits glucocorticoid-induced muscle atrophy | inhibits disuse-induced atrophy | inhibits disuse-induced atrophy | statistically significant hypertrophy | statistically significant hypertrophy | inhibits denervation-induced atrophy | measurable preservation of skeletal muscle mass and function
